Data on 26 molecules can be found in patent EP3782997A1, “FUSED PYRIMIDINE COMPOUNDS AND PHARMACEUTICAL COMPOSITIONS THEREOF FOR THE TREATMENT OF FIBROTIC DISEASES” (Galapagos N.V., priority 2019, dated 2021).

Each structure is given as a SMILES string.

In the test the target is hENPP2 (Homo sapiens, UniProt Q13822). As to the kind of experiment: Human ENPP2 (hENPP2) biochemical assay using LPC as substrate. Particulars: 150 µM LPC (palmitoyl 16:0), 37°C for 30 min. On the procedure:
The principle of the assay conswasts in quantifying the released choline with an enzymatic method using choline oxidase and peroxidase. Choline oxydation by choline oxydase releases betaine and peroxide. The latter was quantified in presence of HRP that converts the peroxide detection agent TOOS (CAS# 82692-93-1) and 4-aminoantipyrine into quinoneimine dye. The appearance of quinoneimine dye was measured spectrophotometrically at 555 nm and was proportional to the amount of choline released by ENPP2. Inhibition of ENPP2 results in a decrease of the signal.
Compound IC50 values were determined in a hENPP2 (UniProtKB/SwwassProt Sequence ref Q13822) biochemical assay using LPC as substrate.
5 µL of a dilution series of compound, starting from 50 µM highest concentration, 1/3 dilution, was added to the wells. hENPP2 was used at a final concentration of 1 µg/mL or 3 µg/mL (it will be appreciated by the skilled person that the potency read out was independent of the enzyme concentration). The enzyme was diluted in 50 mM Trwas-HCl pH 8.5, 500 mM NaCl, 5 mM KCl, 10 mM CaCl2, 0.1% fatty acid free BSA in a total volume of 10 µL. The reaction was started by the addition of 10 µL of 150 µM LPC (palmitoyl 16:0; Avanti Polar Lipids, Inc., Cat# 855675) diluted in the same buffer as described above and the mixture was incubated at 37°C for 30 min. The reaction was terminated and choline quantified by the addition of a 25 µL of a mixture containing 0.6 U/mL of choline oxidase, 0.6 U/mL of peroxydase, 1.8 mM TOOS, 1.2 mM amino-antipyrine, 20 mM EGTA (stop-developer solution) diluted in the buffer described above. […] was read on an Envision plate reader (PerkinElmer, Inc.) after an incubation of 30 min at room temperature (excitation 555 nm).
In turn, `Cc1cc(C)cc(Nc2ncc3c(n2)CN(C2CCN(C(=O)c4ccc5[nH]c(=O)oc5c4)CC2)C3)c1` [compound 11, 6-[4-[2-(3,5-dimethylanilino)-5,7-dihydropyrrolo[3,4-d]pyrimidin-6-yl]piperidine-1-carbonyl]-3H-1,3-benzoxazol-2-one] had an IC50 of 0.01 to 100 nM.

`Cc1cc(C)cc(Nc2ncc3c(n2)CN(C2CCN(C(=O)c4ccc5[nH]c(=O)oc5c4)C2)C3)c1` (centres unmarked) [compound 12, 6-[3-[2-(3,5-dimethylanilino)-5,7-dihydropyrrolo[3,4-d]pyrimidin-6-yl]pyrrolidine-1-carbonyl]-3H-1,3-benzoxazol-2-one] returned an IC50 of 0.01 to 100 nM. Next, `Cc1cc(C)cc(Nc2ncc3c(n2)CN(C2CCN(C(=O)c4ccc5[nH]nnc5c4)C2)C3)c1` (centres unmarked) [compound 13, 1H-benzotriazol-5-yl-[3-[2-(3,5-dimethylanilino)-5,7-dihydropyrrolo[3,4-d]pyrimidin-6-yl]pyrrolidin-1-yl]methanone]: 100 to 500 nM; `O=C(c1ccc2[nH]c(=O)oc2c1)N1CC(N2CCc3nc(Nc4cc(Cl)cc(C(F)(F)F)c4)ncc3C2)C1` [compound 14, 6-[3-[2-[3-chloro-5-(trifluoromethyl)anilino]-7,8-dihydro-5H-pyrido[4,3-d]pyrimidin-6-yl]azetidine-1-carbonyl]-3H-1,3-benzoxazol-2-one]: 0.01 to 100 nM. On to `Cc1cc(Cl)cc(Nc2ncc3c(n2)CCN(C2CN(C(=O)c4ccc5[nH]c(=O)oc5c4)C2)C3)c1` [compound 15, 6-[3-[2-(3-chloro-5-methyl-anilino)-7,8-dihydro-5H-pyrido[4,3-d]pyrimidin-6-yl]azetidine-1-carbonyl]-3H-1,3-benzoxazol-2-one], for which the IC50 fell in the range of 0.01 to 100 nM. In the case of `Cc1cc(Cl)cc(Nc2ncc3c(n2)CCN(C2CN(C(=O)c4ccc5[nH]nnc5c4)C2)C3)c1` [compound 16, 1H-benzotriazol-5-yl-[3-[2-(3-chloro-5-methyl-anilino)-7,8-dihydro-5H-pyrido[4,3-d]pyrimidin-6-yl]azetidin-1-yl]methanone] it was 100 to 500 nM; in that of `O=C(c1ccc2[nH]c(=O)oc2c1)N1CC(N2Cc3cnc(Nc4cc(Cl)cc(C(F)(F)F)c4)nc3C2)C1` [compound 17, 6-[3-[2-[3-chloro-5-(trifluoromethyl)anilino]-5,7-dihydropyrrolo[3,4-d]pyrimidin-6-yl]azetidine-1-carbonyl]-3H-1,3-benzoxazol-2-one], 0.01 to 100 nM; in that of `Cc1cc(C)cc(Nc2ncc3c(n2)CN(C2CN(C(=O)c4ccc5[nH]nnc5c4)C2)C3)c1` [compound 18, 1H-benzotriazol-5-yl-[3-[2-(3,5-dimethylanilino)-5,7-dihydropyrrolo[3,4-d]pyrimidin-6-yl]azetidin-1-yl]methanone], 0.01 to 100 nM. Next, `Cc1cc(C)cc(Nc2ncc3c(n2)CN(C2CN(C(=O)c4ccc5[nH]ncc5c4)C2)C3)c1` [compound 19, [3-[2-(3,5-dimethylanilino)-5,7-dihydropyrrolo[3,4-d]pyrimidin-6-yl]azetidin-1-yl]-(1H-indazol-5-yl)methanone]: 100 to 500 nM; `Cc1cc(C)cc(Nc2ncc3c(n2)CN(C2CN(C(=O)c4cccc(S(N)(=O)=O)c4)C2)C3)c1` [compound 20, 3-[3-[2-(3,5-dimethylanilino)-5,7-dihydropyrrolo[3,4-d]pyrimidin-6-yl]azetidine-1-carbonyl]benzenesulfonamide]: greater than 1000 nM. For the molecule `COc1cc(Nc2ncc3c(n2)CN(C2CN(C(=O)c4ccc5[nH]c(=O)oc5c4)C2)C3)cc(OC)c1` [compound 21, 6-[3-[2-(3,5-dimethoxyanilino)-5,7-dihydropyrrolo[3,4-d]pyrimidin-6-yl]azetidine-1-carbonyl]-3H-1,3-benzoxazol-2-one], the IC50 was in the range of 0.01 to 100 nM. In the case of `O=C(c1ccc2[nH]nnc2c1)N1CC(N2Cc3cnc(Nc4cc(Cl)cc(C(F)(F)F)c4)nc3C2)C1` [compound 22, 1H-benzotriazol-5-yl-[3-[2-[3-chloro-5-(trifluoromethyl)anilino]-5,7-dihydropyrrolo[3,4-d]pyrimidin-6-yl]azetidin-1-yl]methanone] it was 0.01 to 100 nM; in that of `COc1cc(C)cc(Nc2ncc3c(n2)CN(C2CN(C(=O)c4ccc5[nH]nnc5c4)C2)C3)c1` [compound 24, 1H-benzotriazol-5-yl-[3-[2-(3-methoxy-5-methyl-anilino)-5,7-dihydropyrrolo[3,4-d]pyrimidin-6-yl]azetidin-1-yl]methanone], 0.01 to 100 nM; in that of `Cc1cc(C)cc(Nc2ncc3c(n2)CN(C2CN(C(=O)c4ccc(=O)[nH]c4)C2)C3)c1` [compound 26, 5-[3-[2-(3,5-dimethylanilino) -5,7-dihydropyrrolo[3,4-d]pyrimidin-6-yl]azetidine-1-carbonyl]-1H-pyridin-2-one], greater than 1000 nM. In the case of `COc1cc(Nc2ncc3c(n2)CN(C2CCN(C(=O)c4ccc5[nH]nnc5c4)CC2)C3)cc(OC)c1` [compound 27, 1H-benzotriazol-5-yl-[4-[2-(3,5-dimethoxyanilino)-5,7-dihydropyrrolo[3,4-d]pyrimidin-6-yl]-1-piperidyl]methanone] it was 100 to 500 nM; in that of `Cc1cc(Nc2ncc3c(n2)CN(C2CN(C(=O)c4ccc5[nH]c(=O)oc5c4)C2)C3)cc(C(F)(F)F)c1` [compound 28, 6-[3-[2-[3-methyl-5-(trifluoromethyl)anilino]-5,7-dihydropyrrolo[3,4-d]pyrimidin-6-yl]azetidine-1-carbonyl]-3H-1,3-benzoxazol-2-one], 0.01 to 100 nM; in that of `Cc1cc(Nc2ncc3c(n2)CN(C2CN(C(=O)c4ccc5nn[nH]c5c4)C2)C3)cc(C(F)(F)F)c1` [compound 29, 3H-benzotriazol-5-yl-[3-[2-[3-methyl-5-(trifluoromethyl)anilino]-5,7-dihydropyrrolo[3,4-d]pyrimidin-6-yl]azetidin-1-yl]methanone], 0.01 to 100 nM.

`O=C(c1ccc2[nH]nnc2c1)N1CC(N2Cc3cnc(Nc4ccc(C(F)(F)F)cc4)nc3C2)C1` [compound 30, 1H-benzotriazol-5-yl-[3-[2-[4-(trifluoromethyl)anilino]-5,7-dihydropyrrolo[3,4-d]pyrimidin-6-yl]azetidin-1-yl]methanone] showed an IC50 of 0.01 to 100 nM.

Turning to `COc1cc(Nc2ncc3c(n2)CN(C2CN(C(=O)c4ccc5[nH]nnc5c4)C2)C3)cc(OC)c1` [compound 31, 1H-benzotriazol-5-yl-[3-[2-(3,5-dimethoxyanilino)-5,7-dihydropyrrolo[3,4-d]pyrimidin-6-yl]azetidin-1-yl]methanone], the IC50 lay in the range of 0.01 to 100 nM. In the case of `Cc1cc(C)cc(Nc2ncc3c(n2)CN(C2CN(C(=O)c4cc[nH]c(=O)c4)C2)C3)c1` [compound 32, 4-[3-[2-(3,5-dimethylanilino)-5,7-dihydropyrrolo[3,4-d]pyrimidin-6-yl]azetidine-1-carbonyl]-1H-pyridin-2-one] it was greater than 1000 nM; in that of `Cc1cc(C)cc(Nc2ncc3c(n2)CN(C2CCCN(C(=O)c4ccc5[nH]nnc5c4)C2)C3)c1` (centres unmarked) [compound 33, 1H-benzotriazol-5-yl-[3-[2-(3,5-dimethylanilino)-5,7-dihydropyrrolo[3,4-d]pyrimidin-6-yl]-1-piperidyl]methanone], greater than 1000 nM; in that of `Cc1cc(C)cc(Nc2ncc3c(n2)CN(C2CCN(C(=O)c4ccc5[nH]c(=O)oc5c4)C(C)C2)C3)c1` (centres unmarked) [compound 35, 6-[4-[2-(3,5-dimethylanilino)-5,7-dihydropyrrolo[3,4-d]pyrimidin-6-yl]-2-methyl-piperidine-1-carbonyl]-3H-1,3-benzoxazol-2-one], 0.01 to 100 nM.

For `Cc1cc(C)cc(Nc2ncc3c(n2)CN(C2CCN(C(=O)c4ccc5[nH]nnc5c4)CC2(F)F)C3)c1` (centres unmarked) [compound 37, 1H-benzotriazol-5-yl-[4-[2-(3,5-dimethylanilino)-5,7-dihydropyrrolo[3,4-d]pyrimidin-6-yl]-3,3-difluoro-1-piperidyl]methanone], the IC50 was in the range of 0.01 to 100 nM.

Take `Cc1cc(C)cc(Nc2ncc3c(n2)CN(C2CN(C(=O)c4ccc(S(N)(=O)=O)cc4)C2)C3)c1` [compound 38, 4-[3-[2-(3,5-dimethylanilino)-5,7-dihydropyrrolo[3,4-d]pyrimidin-6-yl]azetidine-1-carbonyl]benzenesulfonamide]: the IC50 lay within 100 to 500 nM. Next, `Cc1cc(C)cc(Nc2ncc3c(n2)CN(C2CCCN(C(=O)c4ccc5[nH]c(=O)oc5c4)C2)C3)c1` (centres unmarked) [compound 39, 6-[3-[2-(3,5-dimethylanilino)-5,7-dihydropyrrolo[3,4-d]pyrimidin-6-yl]piperidine-1-carbonyl]-3H-1,3-benzoxazol-2-one]: greater than 1000 nM; `Cc1cc(C)cc(Nc2ncc3c(n2)CN(C2CCN(C(=O)c4ccc5[nH]nnc5c4)CC2F)C3)c1` (centres unmarked) [compound 40, 1H-benzotriazol-5-yl-[4-[2-(3,5-dimethylanilino)-5,7-dihydropyrrolo[3,4-d]pyrimidin-6-yl]-3-fluoro-1-piperidyl]methanone]: 0.01 to 100 nM.

As a reminder, the IC50 is the concentration needed to halve the response being measured. Low readings indicate greater potency, high ones weaker potency.
